This is an account of results in patent US20240116926A1, “HETEROAROMATIC COMPOUNDS” (AstraZeneca AB, priority 2022, published 2024).

Molecules are shown by their SMILES. In brackets after ≈: the same amount, converted by molar mass.

Series [1] deals with MCF7-Luciferase cell line. As to the kind of experiment: Control reporter (MCF7-Luciferase). The series is classed as cell-based. The note with it: MCF7-Luciferase cells, luciferase activity after 24 hours.
The target in series [2] is TEAD4(217-434) (Homo sapiens (Human), UniProt Q15561). In words: TEAD4 FRET. The series is classed as binding. The conditions noted are these: depalmitoylated, biotinylated TEAD4(217-434), FAM labelled Probe A, 120 min at 25° C.
The nature of series [3]: Solubility (thermodynamic, shake-flask). It counts as physicochemical. The conditions noted are these: thermodynamic from solid; aqueous phosphate buffer (pH 7.4), 24 hours at 25° C. Put shortly:
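Shake-flask method starting from 10 mM DMSO stocks, which are dried before use. Residue equilibrated 24 h at 25° C. in aqueous phosphate buffer, pH 7.4. Dissolved fraction separated and quantified by UPLC/MS/MS, with QC samples in each run.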

Series [4] is described as follows: Protein binding measurements in human plasma (Hu PPB). It counts as in vitro ADME. The note with it: equilibrium dialysis for 18 hours, fraction unbound. Put shortly:
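Fraction unbound (fu %) in human plasma, from LC/MSMS of plasma and buffer sides (7-point plasma calibration) after 18 h rapid equilibrium dialysis. Single determinations, with compounds pooled up to 10 per plasma pool.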
Background: Equilibrium dialysis compares concentrations on both sides of a semipermeable membrane.

Series [5] has as its system MCF7-Tead cell line. In words: TEAD reporter assay. The series is classed as cell-based. The conditions noted are these: MCF7-Tead cells, luciferase activity after 24 hours. In general terms: In a reporter assay the amount or activity of a reporter protein is the signal.

What is called IC50 is the midpoint of a concentration-inhibition curve. Low values mean inhibition by little substance, high ones a need for much substance. As usually defined, the solubility is the concentration that dissolves in the medium under given conditions. High values mean much dissolved substance, low ones little dissolved substance.

Sequence of TEAD4(217-434) (Q15561 217-434): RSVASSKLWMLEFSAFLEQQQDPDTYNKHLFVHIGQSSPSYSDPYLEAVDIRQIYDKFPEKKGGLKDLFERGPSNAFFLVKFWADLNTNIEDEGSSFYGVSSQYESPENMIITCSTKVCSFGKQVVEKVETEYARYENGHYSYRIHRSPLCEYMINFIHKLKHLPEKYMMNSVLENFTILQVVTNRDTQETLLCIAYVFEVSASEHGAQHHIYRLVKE

On to `C=CC(=O)N1C[C@H](CO)[C@H](Nc2nnc(-c3ccc(C(F)(F)F)cc3)c3ccccc23)C1` [Example 49, 1-((3S,4S)-3-(hydroxymethyl)-4-((4-(4-(trifluoromethyl)phenyl)phthalazin-1-yl)amino)pyrrolidin-1-yl)prop-2-en-1-one], for which the IC50 in series [1] is greater than 31700 nM; in series [2], 59 nM; in series [5], 57 nM. The molecule also gave a solubility at 24 h in series [3] of 165 µM (≈ 72.9 µg/mL). Besides, in series [4], the “Hu PPB (% free)” value amounted to 9.8 % free.

As to `C=CC(=O)N1CCC[C@H](Nc2nnc(-c3ccc(C(F)(F)F)cc3)c3ccccc23)C1` [Example 50, (S)-1-(3-((4-(4-(trifluoromethyl)phenyl)phthalazin-1-yl)amino)piperidin-1-yl)prop-2-en-1-one], the IC50 in series [1] worked out at 29000 nM; in series [2], 30 nM; in series [5], 187 nM. The molecule further had a solubility at 24 h in series [3] of less than 1.6 µM. The “Hu PPB (% free)” value in series [4] is given as 5.4 % free.
